Experimental data taken from the supplement of paper PMC10307832.

How the values were obtained:
Experiment in all cases: relative viability (nuclei count vs DMSO), 5 days (fraction); higher = more cells survive
IU1-47 + Trametinib = compound: CC1=CC(=C(N1C2=CC=C(C=C2)Cl)C)C(=O)CN3CCCCC3 [IU1-47] + CC(=O)Nc1cccc(-n2c(=O)n(C3CC3)c(=O)c3c(Nc4ccc(I)cc4F)n(C)c(=O)c(C)c32)c1 [Trametinib] (partner 0.02 µM)
Summary of the method: (§1)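 Lung cancer cell lines, seeded in 1536-well plates, were treated the following day by pin tool with a single drug or with five library-drug doses (not always all listed) in √10 steps on top of a fixed anchor-drug dose. Cells were fixed and nuclei stained in one step after 5 days, and nuclei were counted. Relative viability is the nuclei count for treated wells divided by that for vehicle wells, reported as medians of duplicate plates.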

IU1-47 + AZD7762 = compound: CC1=CC(=C(N1C2=CC=C(C=C2)Cl)C)C(=O)CN3CCCCC3 [IU1-47] + NC(=O)Nc1cc(-c2cccc(F)c2)sc1C(=O)N[C@H]1CCCNC1 [AZD7762] (partner 0.2 µM)
Summary of the method: as §1

FG-4592 + Phenformin = compound: Cc1nc(C(=O)NCC(=O)O)c(O)c2ccc(Oc3ccccc3)cc12 [FG-4592] + N=C(N)NC(=N)NCCc1ccccc1 [Phenformin] (partner 250 µM)
Summary of the method: as §1

IU1-47 + Pictilisib = compound: CC1=CC(=C(N1C2=CC=C(C=C2)Cl)C)C(=O)CN3CCCCC3 [IU1-47] + CS(=O)(=O)N1CCN(Cc2cc3nc(-c4cccc5[nH]ncc45)nc(N4CCOCC4)c3s2)CC1 [Pictilisib] (partner 1 µM)
Summary of the method: as §1

Cell Line | relative viability (IU1-47 + Trametinib; first compound 0.08 µM) | relative viability (IU1-47 + Trametinib; first compound 0.253 µM) | relative viability (IU1-47 + Trametinib; first compound 0.8 µM) | relative viability (IU1-47 + Trametinib; first compound 2.53 µM) | relative viability (IU1-47 + Trametinib; first compound 8 µM) | relative viability (IU1-47 + AZD7762; first compound 0.08 µM) | relative viability (IU1-47 + AZD7762; first compound 0.253 µM) | relative viability (IU1-47 + AZD7762; first compound 0.8 µM) | relative viability (IU1-47 + AZD7762; first compound 2.53 µM) | relative viability (IU1-47 + AZD7762; first compound 8 µM) | relative viability (FG-4592 + Phenformin; first compound 0.08 µM) | relative viability (FG-4592 + Phenformin; first compound 0.253 µM) | relative viability (FG-4592 + Phenformin; first compound 0.8 µM) | relative viability (FG-4592 + Phenformin; first compound 2.53 µM) | relative viability (FG-4592 + Phenformin; first compound 8 µM) | relative viability (IU1-47 + Pictilisib; first compound 0.08 µM) | relative viability (IU1-47 + Pictilisib; first compound 0.253 µM) | relative viability (IU1-47 + Pictilisib; first compound 0.8 µM) | relative viability (IU1-47 + Pictilisib; first compound 2.53 µM) | relative viability (IU1-47 + Pictilisib; first compound 8 µM)
NCI-H2087 | 0.172 | 0.187 | 0.203 | 0.195 | 0.229 | 1.45 | 1.29 | 1.53 | 1.31 | 1.24 | 0.519 | 0.416 | 0.454 | 0.493 | 0.529 | 0.884 | 0.865 | 1.11 | 0.452 | 0.83
LC-2-ad | 0.951 | 1.02 | 0.954 | – | 0.884 | 0.851 | 0.84 | 0.866 | – | 0.857 | 0.571 | 0.541 | – | 0.527 | 0.658 | 0.428 | 0.509 | 0.427 | 0.423 | 0.45
NCI-H1915 | 0.296 | 0.288 | 0.28 | 0.3 | 0.324 | 0.712 | 0.71 | 0.671 | 0.655 | 0.703 | 0.327 | 0.362 | 0.387 | 0.354 | 0.398 | 0.854 | 0.915 | 0.977 | – | 0.985
NCI-H1793 | 0.42 | – | 0.554 | 0.513 | 0.416 | 0.716 | – | 0.516 | 0.319 | 0.338 | 0.357 | 0.273 | – | 0.307 | 0.36 | 0.284 | 0.293 | 0.363 | – | 0.262
RERF-LC-KJ | 0.845 | 0.883 | 0.998 | 1.1 | 0.799 | 1.42 | 1.17 | 1.18 | 0.6 | 0.823 | 0.378 | 0.324 | 0.418 | 0.538 | 0.481 | 0.538 | 0.659 | 0.41 | 0.489 | 0.595
LXF-289 | 0.689 | 0.726 | 0.645 | 0.68 | 0.668 | 1.25 | 1.14 | 1.21 | 1.07 | 1.02 | 0.518 | 0.479 | 0.527 | 0.457 | 0.51 | 0.8 | 0.754 | 0.772 | 0.822 | 0.688
PC-14 | 0.95 | 0.771 | 0.91 | 1.14 | 0.723 | 0.404 | 0.345 | 0.377 | 0.314 | 0.275 | 0.628 | 0.505 | 0.411 | 0.667 | 0.558 | 0.896 | 0.706 | 0.673 | 0.82 | 0.437
NCI-H650 | 0.96 | 0.958 | 0.863 | 0.91 | 1.06 | 1.22 | 1 | 1.06 | 0.947 | 1.24 | 0.393 | 0.445 | 0.406 | 0.49 | 0.437 | 0.882 | 1 | 0.932 | 0.968 | 0.832
NCI-H1666 | 1 | 0.871 | 0.851 | 0.916 | 0.901 | 0.866 | 0.86 | 0.854 | 0.803 | 0.815 | 0.611 | 0.518 | 0.613 | 0.377 | 0.562 | 0.436 | 0.452 | 0.455 | 0.448 | 0.407
NCI-H2085 | 0.515 | 0.471 | 0.577 | 0.614 | 0.523 | 0.983 | 1.02 | 0.997 | 0.73 | 1.02 | 0.646 | 0.618 | 0.536 | 0.592 | 0.647 | 0.445 | 0.426 | 0.422 | 0.47 | 0.447
NCI-H1734 | 0.867 | 0.67 | 0.593 | 0.647 | 0.645 | 0.639 | 0.481 | 0.487 | 0.383 | 0.517 | 0.398 | 0.387 | 0.343 | 0.377 | 0.354 | 0.463 | 0.442 | 0.464 | – | 0.427
NCI-H2126 | 0.642 | 0.595 | 0.592 | 0.498 | 0.534 | 1.01 | 1.08 | 1.14 | 0.712 | 0.837 | 0.554 | 0.5 | 0.51 | 0.492 | 0.461 | 0.47 | 0.477 | 0.52 | 0.382 | 0.493
EMC-BAC-2 | 0.978 | 0.948 | 0.942 | 1 | 0.946 | 1.1 | 1.24 | 1.09 | 1.07 | 1.07 | 0.496 | 0.516 | 0.414 | 0.509 | 0.454 | 0.547 | 0.51 | 0.545 | 0.572 | 0.489
NCI-H1993 | 0.545 | 0.613 | 0.564 | 0.471 | 0.0511 | 0.682 | 0.763 | 0.769 | 0.781 | 0.85 | 0.513 | 0.427 | 0.5 | 0.421 | 0.507 | 0.899 | 0.769 | 0.86 | 0.913 | 0.821
NCI-H647 | 0.459 | 0.432 | 0.489 | 0.405 | 0.443 | 0.551 | 0.392 | 0.486 | 0.386 | 0.29 | 0.435 | 0.536 | 0.46 | 0.467 | 0.457 | 0.467 | 0.52 | 0.453 | – | 0.359
NCI-H1792 | 0.569 | 0.392 | 0.437 | 0.402 | 0.422 | 0.501 | 0.613 | 0.643 | 0.666 | 0.619 | 0.355 | 0.247 | – | 0.352 | 0.24 | 0.26 | 0.318 | 0.253 | 0.165 | 0.286
